In PMC3344862, “Structural and Mutational Studies on Substrate Specificity and Catalysis of Salmonella typhimurium D-Cysteine Desulfhydrase” (PLoS ONE, 2012):

How the values were obtained:
[1] = target: T1, StDCyD (Salmonella enterica, UniProt Q8ZNT7); experiment: X-ray crystallography, co-crystallization; format: binding
T1 construct: gene dcyD; 36 kDa, dimer in solution; PLP on Lys51
T1 sequence (Q8ZNT7 1-328): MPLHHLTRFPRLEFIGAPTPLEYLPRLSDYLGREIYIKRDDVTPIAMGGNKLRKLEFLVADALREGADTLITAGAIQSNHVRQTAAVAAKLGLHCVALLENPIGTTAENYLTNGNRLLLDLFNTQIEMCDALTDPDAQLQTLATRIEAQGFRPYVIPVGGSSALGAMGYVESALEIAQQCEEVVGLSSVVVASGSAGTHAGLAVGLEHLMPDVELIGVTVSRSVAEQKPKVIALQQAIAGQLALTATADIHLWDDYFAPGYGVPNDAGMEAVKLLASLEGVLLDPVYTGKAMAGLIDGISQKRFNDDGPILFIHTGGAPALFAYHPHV

[2] = target: T1, StDCyD; experiment: X-ray crystallography, crystal soak; UV-visible spectra; format: binding; conditions: covalent; external aldimine with PLP; 10 mM, about 2 min soak
[3] = target: T1, StDCyD; experiment: X-ray crystallography; absorbance maximum […] nm; format: binding; conditions: covalent; Schiff base with Lys51
[4] = target: T1, StDCyD; experiment: X-ray crystallography, co-crystallization with DCS or LCS; format: binding; conditions: active site, not covalently linked to Lys51; formed from PLP by DCS (4D9B) or LCS (4D9C)
[5] = target: T1, StDCyD; experiment: X-ray crystallography, crystals soaked with D-Cys or βCDA; format: binding; conditions: second site 4.0-6.0 Å from the active site (Arg222, Ser221); formed from D-Cys (4D8W) or βCDA (4D92)
[6] = target: T1, StDCyD; experiment: thermal melting; format: binding; conditions: 10 mM pyruvate; Tm without and with ligand; data not shown
[7] = target: the molecule itself; experiment: SEC; analytical gel filtration of the purified protein

NC1(C(=O)O)CC1 [ACC]
X-ray crystallography, co-crystallization ([1]; covalent, external aldimine with PLP, not a substrate): StDCyD cocrystallized with ACC (PDB code: 4D96) revealed that the ligand binds as an external aldimine

N[C@H](CO)C(=O)O [D-Ser]
X-ray crystallography, co-crystallization ([1]; active site, non-covalent, internal aldimine intact, poor substrate): Structures of StDCyD-D-Ser (PDB code: 4D97) and StDCyD-L-Ser (PDB code: 4D99) complexes

N[C@@H]1CONC1=O [DCS]
X-ray crystallography, crystal soak; UV-visible spectra [2]: Electron density observed at the active site was consistent with external aldimines of DCS or LCS

N[C@@H](CO)C(=O)O [L-Ser]
X-ray crystallography, co-crystallization ([1]; active site, non-covalent, internal aldimine intact, not a substrate): Structures of StDCyD-D-Ser (PDB code: 4D97) and StDCyD-L-Ser (PDB code: 4D99) complexes

N[C@H]1CONC1=O [LCS]
X-ray crystallography, crystal soak; UV-visible spectra [2]: Electron density observed at the active site was consistent with external aldimines of DCS or LCS

Cc1ncc(COP(=O)(O)O)c(C=O)c1O [PLP]
X-ray crystallography; absorbance maximum 417 nm [3]: PLP is bound by a Schiff base linkage to Lys51

Cc1ncc(COP(=O)(O)O)c(CN)c1O [PMP]
X-ray crystallography, co-crystallization with DCS or LCS [4]: PMP is not covalently linked to ε-amino group of Lys51

CC(=O)C(=O)O [pyruvate]
X-ray crystallography, crystals soaked with D-Cys or βCDA [5]: The modeled pyruvate is held by hydrogen bonding with Arg222 and Ser221
Tm with ligand [6]: 80 to 85 °C

B1: Salmonella typhimurium D-cysteine desulfhydrase (enzyme, UniProt Q8ZNT7 1-328, looked up)
chain: T1 sequence (Q8ZNT7 1-328)
modifications: PLP bound by a Schiff base linkage to Lys51
notes: residues 1-328; Cloned in pRSET C; no cleavage of the tag is described; Small domain residues 48-161, large domain residues 1-47 and 162-328; also called StDCyD; DCyD; source: E. coli BL21 (DE3) Rosetta, purified (Ni-NTA, size exclusion chromatography)
stoichiometry N [7]: 2
